Experimental data taken from patent publication US9603364B2 (Dow AgroSciences LLC, priority 2013, dated 2017).

What was measured:
Test in all cases: General post-emergent herbicidal activity, foliar application
Type in all cases: in vivo
[1] = test system: Amaranthus retroflexus L. (pigweed, redroot); conditions: for pest or weed control at 70 g/ha: 70 g ai/ha; for pest or weed control at 280 g/ha: 280 g ai/ha; for GR80 Value AMARE: calculated by probit analysis, dose for 80% visual injury, may be extrapolated
Procedure: (§1) A weighed amount, determined by the highest rate to be tested, of each test compound was placed in a 25 mL glass vial and was dissolved in 4 mL of a 97:3 v/v (volume/volume) mixture of acetone and dimethyl sulfoxide to obtain concentrated stock solutions which will be referred to as General Purpose Solvent. […] The concentrated stock solutions obtained were diluted with 20 mL of an aqueous mixture containing water, General Purpose Solvent, isopropyl alcohol, Atplus 411F crop oil concentrate, and Triton X-155 surfactant in a 46:42:12:1.0:0.02 v/v ratio to obtain spray solutions containing the highest application rates. Additional application rates were obtained by serial dilution of 12 mL of the high rate solution into a solution containing 2 mL of 97:3 v/v (volume/volume) mixture of acetone and dimethyl sulfoxide and 10 mL of an aqueous mixture containing water, General Purpose Solvent, isopropyl alcohol, Atplus 411F crop oil concentrate, and Triton X-155 surfactant in a 46:42:12:1.0:0.02 v/v ratio to obtain 1/2×, 1/4×, 1/8× and 1/16× rates of the high rate. […] Control plants were sprayed in the same manner with the solvent blank.
(§2) The treated plants and control plants were placed in a greenhouse as described above and watered by sub-irrigation to prevent wash-off of the test compounds. After 14 days, the condition of the test plants as compared with that of the untreated plants was determined visually and scored on a scale of 0 to 100 percent where 0 corresponds to no injury and 100 corresponds to complete kill.
(§3) By applying the well-accepted probit analysis as described by J. Berkson in […], 48, 565 (1953) and by D. Finney in “Probit Analysis” Cambridge University Press (1952), the dose response data gathered as expressed above can be used to calculate GR20, GR50 and GR80 values, which are defined as growth reduction factors that correspond to the effective dose of herbicide required to kill or control 20 percent, 50 percent or 80 percent, respectively, of a target plant. Data not expressed in Table A may have been used to calculate some of the GR80 values in Table B. In some cases, the GR80 values may be extrapolations calculated based on the slope of the dose response curve for individual compounds listed in Table B.

[2] = test system: Chenopodium album L. (lambsquarters, common); conditions: for pest or weed control at 35 g/ha / pest or weed control at 70 g/ha / pest or weed control at 140 g/ha / pest or weed control at 280 g/ha: Chenopodium album, 336 h, foliar post-emergent, scored after 14 days, read-out: % Visual Growth Reduction CHEAL; for pest or weed control at 35 g/ha: 35 g ai/ha; for pest or weed control at 70 g/ha: 70 g ai/ha; for pest or weed control at 140 g/ha: 140 g ai/ha; for pest or weed control at 280 g/ha: 280 g ai/ha; for GR80 Value CHEAL: calculated by probit analysis, dose for 80% visual injury, may be extrapolated
Procedure: as §1, §2, §3

[3] = test system: Echinochloa crus-galli (L.) Beauv. (barnyardgrass); conditions: for pest or weed control at 35 g/ha / pest or weed control at 70 g/ha / pest or weed control at 140 g/ha / pest or weed control at 280 g/ha: Echinochloa crus-galli, 336 h, foliar post-emergent, scored after 14 days, read-out: % Visual Growth Reduction ECHCG; for pest or weed control at 35 g/ha: 35 g ai/ha; for pest or weed control at 70 g/ha: 70 g ai/ha; for pest or weed control at 140 g/ha: 140 g ai/ha; for pest or weed control at 280 g/ha: 280 g ai/ha; for GR80 Value ECHCG: calculated by probit analysis, may be extrapolated
Procedure: as §1, §2, §3

[4] = test system: Euphorbia heterophylla L. (poinsettia, wild); conditions: for pest or weed control at 35 g/ha / pest or weed control at 70 g/ha / pest or weed control at 140 g/ha / pest or weed control at 280 g/ha: Euphorbia heterophylla, 336 h, foliar post-emergent, scored after 14 days, read-out: % Visual Growth Reduction EPHHL; for pest or weed control at 35 g/ha: 35 g ai/ha; for pest or weed control at 70 g/ha: 70 g ai/ha; for pest or weed control at 140 g/ha: 140 g ai/ha; for pest or weed control at 280 g/ha: 280 g ai/ha; for GR80 Value EPHHL: calculated by probit analysis, dose for 80% visual injury, may be extrapolated
Procedure: as §1, §2, §3

[5] = test system: Helianthus annuus L. (sunflower, common); conditions: for pest or weed control at 70 g/ha: 70 g ai/ha; for pest or weed control at 140 g/ha: 140 g ai/ha; for pest or weed control at 280 g/ha: 280 g ai/ha; for GR80 Value HELAN: calculated by probit analysis, dose for 80% visual injury, may be extrapolated
Procedure: as §1, §2, §3

[6] = test system: Viola tricolor L. (pansy); conditions: for pest or weed control at 70 g/ha: 70 g ai/ha; for pest or weed control at 140 g/ha: 140 g ai/ha; for pest or weed control at 280 g/ha: 280 g ai/ha; for GR80 Value VIOTR: calculated by probit analysis, may be extrapolated
Procedure: as §1, §2, §3

Oryza sativa L. (rice) = conditions: scored after 14 days; for plant injury at 35 g/ha / plant injury at 70 g/ha / plant injury at 140 g/ha / plant injury at 280 g/ha: Oryza sativa, 336 h, read-out: % Visual Growth Reduction ORYSA; for plant injury at 70 g/ha: 70 g ai/ha; for plant injury at 140 g/ha: 140 g ai/ha; for plant injury at 280 g/ha: 280 g ai/ha
Procedure: as §1, §2

Zea mays L. (corn) = conditions: 336 h, scored after 14 days, read-out: % Visual Growth Reduction ZEAMX; for plant injury at 35 g/ha: 35 g ai/ha; for plant injury at 70 g/ha: 70 g ai/ha; for plant injury at 140 g/ha: 140 g ai/ha; for plant injury at 280 g/ha: 280 g ai/ha
Procedure: as §1, §2

[7] = Amaranthus retroflexus, 336 h, foliar post-emergent, scored after 14 days, read-out: % Visual Growth Reduction AMARE
[8] = Amaranthus retroflexus, 336 h, 140 g ai/ha, foliar post-emergent, scored after 14 days, read-out: % Visual Growth Reduction AMARE
[9] = Helianthus annuus, 336 h, foliar post-emergent, scored after 14 days, read-out: % Visual Growth Reduction HELAN
[10] = Viola tricolor, 336 h, foliar post-emergent, scored after 14 days, read-out: % Visual Growth Reduction VIOTR
[11] = calculated, dose for 80% visual injury, prior art tables

Row | SMILES | pest or weed control at 70 g/ha [1, 7] [%] | pest or weed control at 140 g/ha [1, 8] [%] | pest or weed control at 280 g/ha [1, 7] [%] | GR80 Value AMARE [1] [g ai/ha] | pest or weed control at 70 g/ha [2] [%] | pest or weed control at 140 g/ha [2] [%] | pest or weed control at 280 g/ha [2] [%] | GR80 Value CHEAL [2] [g ai/ha] | pest or weed control at 70 g/ha [3] [%] | pest or weed control at 140 g/ha [3] [%] | pest or weed control at 280 g/ha [3] [%] | GR80 Value ECHCG ([3]; dose for 80% visual injury) [g ai/ha] | pest or weed control at 70 g/ha [4] [%] | pest or weed control at 140 g/ha [4] [%] | pest or weed control at 280 g/ha [4] [%] | pest or weed control at 280 g/ha [5, 9] [%] | pest or weed control at 140 g/ha [6, 10] [%] | pest or weed control at 280 g/ha [6, 10] [%] | plant injury at 280 g/ha (Oryza sativa L. (rice)) [%] | plant injury at 280 g/ha (Zea mays L. (corn)) [%] | further results
1 | COC(=O)c1nc(CF)c(Cl)c(N)c1Cl [Compound F1, Methyl 4-amino-3,5-dichloro-6-(fluoromethyl)picolinate] | 60 | 80 | 90 | 142 | 90 | 90 | 90 | 17.5 | 0 | 0 | 0 | >280 | 100 | 100 | 100 | 100 | 10 | 10 | 0 | 0 | pest or weed control at 35 g/ha ([1]; Amaranthus retroflexus, 336 h, 35 g ai/ha, foliar post-emergent, scored after 14 days, read-out: % Visual Growth Reduction AMARE): 55%; pest or weed control at 35 g/ha [2]: 90%; pest or weed control at 35 g/ha [3]: 0%; pest or weed control at 35 g/ha [4]: 100%; GR80 Value EPHHL [4]: 26.2 g ai/ha; pest or weed control at 35 g/ha ([5]; Helianthus annuus, 336 h, 35 g ai/ha, foliar post-emergent, scored after 14 days, read-out: % Visual Growth Reduction HELAN): 100%; pest or weed control at 70 g/ha [5, 9]: 100%; pest or weed control at 140 g/ha [5, 9]: 100%; GR80 Value HELAN [5]: <17.5 g ai/ha; pest or weed control at 35 g/ha ([6]; Viola tricolor, 336 h, 35 g ai/ha, foliar post-emergent, scored after 14 days, read-out: % Visual Growth Reduction VIOTR): 0%; pest or weed control at 70 g/ha [6, 10]: 0%; GR80 Value VIOTR ([6]; dose for 80% visual injury): >280 g ai/ha; plant injury at 35 g/ha (Oryza sativa L. (rice); 35 g ai/ha): 0%; plant injury at 70 g/ha (Oryza sativa L. (rice)): 0%; plant injury at 140 g/ha (Oryza sativa L. (rice)): 0%; plant injury at 35 g/ha (Zea mays L. (corn)): 0%; plant injury at 70 g/ha (Zea mays L. (corn)): 0%; plant injury at 140 g/ha (Zea mays L. (corn)): 0%
2 | COC(=O)c1nc(CC(F)F)c(F)c(N)c1Cl [Compound F2, methyl 4-amino-3-chloro-6-(2,2-difluoroethyl)-5-fluoropicolinate] |  | 100 |  | 103 |  | 90 |  | 103 |  | 0 |  | >140 |  | 100 |  |  | 0 |  |  |  | GR80 Value EPHHL [4]: 114 g ai/ha; pest or weed control at 140 g/ha [5, 9]: 80%; GR80 Value HELAN [5]: 80.8 g ai/ha; GR80 Value VIOTR ([6]; dose for 80% visual injury): >140 g ai/ha; plant injury at 140 g/ha (Oryza sativa L. (rice)): 0%; plant injury at 140 g/ha (Zea mays L. (corn)): 0%
3 | COC(=O)c1nc(C(F)F)c(F)c(N)c1Cl [Compound F3, methyl 4-amino-3-chloro-6-(difluoromethyl)-5-fluoropicolinate] | 5 | 50 | 90 | 112 | 100 | 100 | 100 | <17.5 | 0 | 0 | 10 | >280 | 50 | 75 | 85 | 90 | 5 | 10 | 0 | 10 | GR80 Value EPHHL [4]: 193 g ai/ha; pest or weed control at 70 g/ha [5, 9]: 90%; pest or weed control at 140 g/ha [5, 9]: 90%; GR80 Value HELAN [5]: 32.5 g ai/ha; pest or weed control at 70 g/ha [6, 10]: 0%; GR80 Value VIOTR ([6]; dose for 80% visual injury): >280 g ai/ha; plant injury at 70 g/ha (Oryza sativa L. (rice)): 0%; plant injury at 140 g/ha (Oryza sativa L. (rice)): 0%; plant injury at 70 g/ha (Zea mays L. (corn)): 0%; plant injury at 140 g/ha (Zea mays L. (corn)): 0%
4 | COC(=O)c1nc(CCC(F)(F)F)c(Cl)c(N)c1Cl [Compound F5, methyl 4-amino-3,5-dichloro-6-(3,3,3-trifluoropropyl)picolinate] |  |  | 0 |  |  |  | 0 |  |  |  | 0 |  |  |  | 0 | 60 |  | 0 | 0 | 0 | 
5 | C=C(F)c1cc(N)c(Cl)c(C(=O)OC)n1 [Compound F6, methyl 4-amino-3-chloro-6-(1-fluorovinyl)picolinate] |  |  | 40 |  |  |  | 90 |  |  |  | 0 |  |  |  | 60 | 20 |  | 0 | 0 | 0 | 
6 | COC(=O)c1nc(C(F)(F)F)cc(N)c1Cl [Prior Art 1, reference compound] | 80 | 100 |  |  | 85 | 100 |  |  | 0 | 0 |  |  | 85 | 95 |  |  | 95 |  |  |  | % Visual Growth Reduction AMARE ([1]; 140 g ai/ha, foliar post-emergent, scored after 14 days): 100%; pest or weed control at 35 g/ha [2]: 80%; pest or weed control at 35 g/ha [3]: 0%; GR80 Values ECHCG [3, 11]: >140 g/ha; pest or weed control at 35 g/ha [4]: 80%; GR80 Values VIOTR [6, 11]: 121 g/ha; % Visual Growth Reduction ORYSA (Oryza sativa L. (rice); 35 g ai/ha): 0%; plant injury at 35 g/ha (Oryza sativa L. (rice); 35 g ai/ha): 0%; plant injury at 35 g/ha (Zea mays L. (corn)): 0%
